According to patent US20110312962A1, “NOVEL 2-MORPHOLINO-3-AMIDO-PYRIDINE DERIVATIVES AND THEIR MEDICAL USE” (NEUROSEARCH A/S, priority 2008, published 2011):

Target: T1, human Kv7.2+3 (Homo sapiens, UniProt O43525+O43526)
T1 construct: expressed in transfected cells; host or cells: HEK293
Assay: FLIPR-based characterization of Kv7.2+3 modulators (thallium influx, BTC-AM)
Assay type: cell-based
Conditions: HEK293 cells over-expressing human Kv7.2+3; for EC50: Tl+ influx FLIPR, 50% of channel activity compared to retigabine control responses; for Emax: maximal response relative to the reference (retigabine) response, read-out: Efficacy
Description: This experiment determines the ability of a test compound to modulate the activity of Kv7.2+3 channels heterologously expressed in human HEK293 cells. The ability is determined relative to retigabine. The activity is determined using a standard thallium (I) sensitive assay, e.g. using a fluorometric method in a Fluorescent Image Plate Reader (FLIPR) as described below in more detail.
Full concentration/response curves are generated and EC50 values are calculated based on max values. EC50 values (Effective Concentration) represent the concentration of the test substance, at which 50% of the channel activity is obtained when compared to retigabine control responses. Maximal response determined relative to the reference (retigabine) response is calculated.
Human HEK293 cells over-expressing human Kv7.2+3 are grown in culture medium (DMEM supplemented with 10% foetal bovine serum), in polystyrene culture flasks ([…]) in a humidified atmosphere of 5% CO2 in air, at 37° C. Cell confluence should be 80-90% on day of plating. Cells are rinsed with 4 ml of PBS (phosphate buffered saline) and incubated 2 min with 1 ml of Trypsin-EDTA. After addition of 25 ml of culture medium cells are re-suspended by trituration with a 25 ml pipette.
The cells are seeded at a density of ˜3×10^6 cells/ml (25 μl/well) in black-walled, clear bottom, 384-well plates pre-treated with 0.01 g/l poly-D-lysin (20 μl/well for 30 min). Plated cells were allowed to proliferate for 24 h before loading with dye.
BTC-AM (50 mg, Invitrogen) is added 25.5 μl DMSO. The BTC-AM stock solution (2 mM) is diluted to a final concentration of 2 μM in Cl^− free assay buffer (in mM: 140 Na^+-gluconate, 2.5 K^+-gluconate, 6 Ca2^+-gluconate, 1 Mg^2+ gluconate, 5 glucose, 10 HEPES, pH 7.3) containing 2 μM ouabain, 2 mM amaranth and 1 mM tartrazine.
The culture medium is aspirated from the wells, the cells are washed thrice in Cl^− free assay buffer, and 25 μl of the BTC-AM loading solution is added to each well. The cells are incubated at 37° C. for 60 min.
After the loading period, the TI^+-sensitive BTC fluorescence signal is measured over time using a FLIPR.
• Temperature: Room temp. • First addition: 12 μl test or control compound after 15 sec at a rate of 30 μl/sec and starting height of 20 μl • Second addition: 12 μl stimulus buffer (Cl^− free assay buffer supplemented with 1 mM TI2SO4, 5 mM K2SO4 as well as the quenchers amaranth (2 mM) and tartrazine (1 mM)) is added after an additional 3 minutes at a rate of 30 μl/sec and starting height of 30 μl • Reading intervals: First sequence—3 sec×5, 2 sec×24 and 5 sec×25 Second sequence—1 sec×5, 2 sec×24 and 5 sec×36 Addition plates (compound plate and stimulus plate) are placed in positions 2 and 3, respectively. Cell plates are placed in position 1 and run using the “KCNQ (two additions)” program. FLIPR will then take the appropriate measurements in accordance with the interval settings above. Fluorescence obtained after stimulation is corrected for the mean basal fluorescence (in Cl^− free assay buffer).
Full concentration/response curves are generated and EC50 values (“Effective Concentration”; the concentration at which 50% of the channel activity is obtained when compared to retigabine control responses) are calculated based on peak values. Maxi-mal response determined relative to the reference (retigabine) response is calculated.

Compound | EC50 [nM] | Emax [%]
O=C(CSc1ccc(F)cc1)Nc1ccc(NCc2ccc(F)cc2)nc1N1CCOCC1 [Compound 2.12] | 2700 | 87
O=C(COc1cccc(F)c1)Nc1ccc(NCc2ccc(F)cc2)nc1N1CCOCC1 [Compound 2.13, 2-(3-fluorophenoxy)-N-[6-[(4-fluorophenyl)-methylamino]-2-morpholino-3-pyridyl]acetamide] | 6600 | 86
O=C(Cc1cc(F)cc(F)c1)Nc1ccc(NCc2ccc(F)cc2)nc1N1CCOCC1 [Compound 2.1, 2-(3,5-Difluoro-phenyl)-N-[6-(4-fluoro-benzylamino)-2-morpholin-4-yl-pyridin-3-yl]-acetamide] | 130 | 100
O=C(Cc1ccc(Cl)cc1)Nc1ccc(NCc2ccc(F)cc2)nc1N1CCOCC1 [Compound 2.11] | 230 | 88
O=C(Cc1cccc(F)c1)Nc1ccc(NCc2ccc(F)cc2)nc1N1CCOCC1 [Compound 2.10, N-[6-(4-Fluoro-benzylamino)-2-morpholin-4-yl-pyridin-3-yl]-2-(3-fluoro-phenyl)-acetamide] | 35 | 93
O=C(Cc1cccc(C(F)(F)F)c1)Nc1ccc(NCc2ccc(F)cc2)nc1N1CCOCC1 [Compound 2.8, N-[6-(4-Fluoro-benzylamino)-2-morpholin-4-yl-pyridin-3-yl]-2-(3-trifluoromethyl-phenyl)-acetamide] | 590 | 87
O=C(Cc1ccc2c(c1)OCO2)Nc1ccc(NCc2ccc(F)cc2)nc1N1CCOCC1 [Compound 2.4, 2-Benzo[1,3]dioxol-5-yl-N-[6-(4-fluoro-benzylamino)-2-morpholin-4-yl-pyridin-3-yl]-acetamide] | 780 | 104
O=C(Nc1ccc(NCc2ccc(F)cc2)nc1N1CCOCC1)c1cccnc1F [Compound 2.15, 2-fluoro-N-[6-[(4-fluorophenyl)-methylamino]-2-morpholino-3-pyridyl]-pyridine-3-carboxamide] | 11000 | 28
Cc1ccccc1C(=O)Nc1ccc(NCc2ccc(F)cc2)nc1N1CCOCC1 [Compound 2.3, N-[6-(4-Fluoro-benzylamino)-2-morpholin-4-yl-pyridin-3-yl]-2-methyl-benzamide] | 10000 | 52
O=C(Cc1ccc(Cl)cc1Cl)Nc1ccc(NCc2ccc(F)cc2)nc1N1CCOCC1 [Compound 2.7] | 4100 | 47
O=C(Cc1ccc(Cl)nc1)Nc1ccc(NCc2ccc(F)cc2)nc1N1CCOCC1 [Compound 2.14, 2-(6-chloro-3-pyridyl)-N-[6-[(4-fluorophenyl)-methylamino]-2-morpholino-3-pyridyl]acetamide] | 900 | 80
COc1cccc(CC(=O)Nc2ccc(NCc3ccc(F)cc3)nc2N2CCOCC2)c1 [Compound 2.6, N-[6-(4-Fluoro-benzylamino)-2-morpholin-4-yl-pyridin-3-yl]-2-(3-methoxy-phenyl)-acetamide] | 330 | 88
CC(C)(Nc1ccc(NC(=O)Cc2cc(F)cc(F)c2)c(N2CCOCC2)n1)c1ccc(F)cc1 [Compound 2.2, 2-(3,5-Difluoro-phenyl)-N-{6-[1-(4-fluoro-phenyl)-1-methyl-ethylamino]-2-morpholin-4-yl-pyridin-3-yl}-acetamide] | 5400 | 86
COc1ccc(CC(=O)Nc2ccc(NCc3ccc(F)cc3)nc2N2CCOCC2)cc1 [Compound 2.5, N-[6-(4-Fluoro-benzylamino)-2-morpholin-4-yl-pyridin-3-yl]-2-(4-methoxy-phenyl)-acetamide] | 840 | 98
O=C(Cc1ccccc1F)Nc1ccc(NCc2ccc(F)cc2)nc1N1CCOCC1 [Compound 2.9, N-[6-(4-Fluoro-benzylamino)-2-morpholin-4-yl-pyridin-3-yl]-2-(2-fluoro-phenyl)-acetamide] | 210 | 86
